From patent US20150087723A1, “MICROBIAL COMPOSITION” (Rohm and Haas Company, priority 2011, published 2015)

Columns and labels:
Assay in all cases: Antimicrobial efficacy in water, 15 seconds contact, mean bacterial survival NMBS by colony count
Type in all cases: cell-based
[1] = test system: Staphylococcus aureus (10788 strain); details: for NMBS: alone, S. Aureus, 15 seconds contact; for MBC (minimum biocidal concentration): single component, against S. Aureus, in water
Procedure: Selected materials were also tested against a representative Gram positive Staphylococcus aureus.
This suspension was separated into equal volumes and centrifuged at 4000 rpm for 15 minutes. Following centrifugation the pellet was re-suspended in saline to give a final concentration of 0.35 OD620 equivalent to about 10^8 cells per millilitre for this particular organism. Here, OD620 indicates the absorbance of a sample in a cuvette of 1.0 cm path length at a wavelength of 620 nm. This bacterial stock was used for assaying against antimicrobial actives (in triplicate).
(§1) The following assay describes the testing of 8 materials using 6 dilutions across half of a 96-well micro litre plate (MTP). Using this approach it is possible to assay 16 actives (without replicates) with, one full dilution plate, replicating this set up in two halves of the plate columns, 1-6 and 7-12.
(§2) IM solutions of the test actives were prepared in dimethylsulphoxide (DMSO).
This MTP was labeled as the “Screening plate”.
(§3) In another MTP, labeled as the “Dilution plate”, 270 μl of D/E neutralising solution from DIFCO Composition was added to column 1. The composition of the neutralising solution was as follows: pancreatic digest of casein, 5.0 g/L; Yeast Extract, 2.5 g/L; Dextrose, 10 g/L, sodium thioglycollate, 1.0 g/L, sodium thiosulphate, 6.0 g/L; sodium bisulphite, 2.5 g/L; Polysorbate 80, 5.0 g/L; lecithin 7.0 g/L; bromocresol purple, 0.02 g/L with a pH is the range 7.6±0.2.
(§4) 270 μl of tryptone diluent solution was added to all the remaining wells of the Dilution MTP (columns 2-6).
(§5) Bacterial stock (30 μl) was then added to the prepared 270 μl of the solution of actives in the Screening Plate and mixed, using a multichannel pipette with 8 tips to aspirate and dispense the same volume of bacterial stock in parallel to 8 wells in rows A-H. After a contact time of 15 seconds, the mixtures were quenched by transferring 30 μl volumes of the mixtures into the 270 μl D/E neutralising solution in the prepared dilution plate, using aspiration to mix. After exactly 5 minutes in the D/E neutralising solution, 30 μl volumes were transferred from column 1 to column 2 of the Dilution MTP and mixed, before transferring further 30 μl volumes from column 2 into column 3. This process was repeated serially diluting the bacteria across the plate to column 6.
(§6) 30 μl volumes from each well in the Dilution MTP were transferred onto pre-labeled segment of Tryptone Soya Agar (TSA) plates starting from the lowest bacterial concentration (highest dilution, column 6) to the highest bacterial concentration (column 1). The TSA plates were allowed to stand for ca. 2 hours so that the 30 μl inocula spots could dry and the plates were then inverted and incubated overnight at 37° C. before enumerating the bacterial colonies at the labeled dilutions to determine the effects of the actives on bacterial growth.
(§7) Mean bacterial survival numbers NMBS (expressed in Log CFU/ml) are obtained by first determining the segment of the TSA plate where the number of bacterial colonies is countable. From the colony number in this segment, NMBS is calculated by the formula: […]
Here, Ncol is the colony count, and DF is the dilution factor taken from the MTP-well corresponding to the TSA plate segment (i.e. DF may range from 1 for the quench, to 6 for the highest dilution). The factor 100/3 is a conversion factor from the volume of the inocula spot to one millilitre.
Every assay test was performed in triplicate.
Thus, a value of NMBS of about 7 corresponds to a count of about 3 colonies from the fifth dilution well, i.e. with DF=5. Such a count of about 7 is generally observed when bacteria are exposed to non-biocidal materials. In case no surviving colonies are observed in any segment of the TSA plate, this is interpreted as complete kill and a value of NMBS=0 is reported.
S. aureus Bacterial stock was prepared as shown below and the antibacterial efficacy of the active was carried out as explained earlier for E. Coli.

[2] = test system: Escherichia coli (10536 strain)
Procedure: An overnight culture of Escherichia coli (10536 strain) was prepared in 50 ml total volume of TSB broth, grown for ca. 18 hrs at 37° C. and shaken at 150 rpm. 1 ml of this overnight E. coli culture was transferred to 50 ml of fresh TSB broth and incubated at 37° C. at 150 rpm for ca. 4 hours. […] This bacterial stock was used for assaying against antimicrobial actives (in triplicate).
as §1, §2
Aliquots (270 μl) of the materials at 1.11 times the final concentration were dispensed into the wells of the MTP along one column (A1-H1). This MTP was labeled as the “Screening plate”.
as §3, §4, §5, §6, §7
Here, Ncol is the colony count, and DF is the dilution factor taken from the MTP-well corresponding to the TSA plate segment (i.e. DF may range from 1 for the quench, to 6 for the highest dilution).

[3] = test system: Staphylococcus aureus (10788 strain)

Compound | NMBS ([1]; 0.05% w/v) | NMBS ([1]; 0.125% w/v) | NMBS ([1]; 0.5% w/v) | NMBS ([1]; […] w/v) | MBC (minimum biocidal concentration) [1] | Log reduction E. coli ATCC 10536 ([2]; component alone at 0.1% w/v) | Log reduction E. coli ATCC 10536 ([2]; component alone at […] w/v) | NMBS ([1]; 1.0% w/v) | Log reduction S. aureus ATCC 6538 ([3]; component alone at 0.1% w/v) | Log reduction S. aureus ATCC 6538 ([3]; component alone at […] w/v)
CCCc1ccccc1O [2-n-propylphenol] | 7.40 log CFU/ml | 7.06 log CFU/ml | 0 log CFU/ml | 4.12 log CFU/ml | 0.5 % w/v | – | – | – | – | –
CC(C)=CCC/C(C)=C/CO [(E)-3,7-dimethylocta-2,6-dien-1-ol] | – | – | 7.43 log CFU/ml | – | >1.5 % w/v | 1.27 | 1.94 | 7.18 log CFU/ml | −0.12 | −0.06
